# Assay results taken from US6613747B2, “6-O-carbamoyl ketolide antibacterials” (Ortho-McNeil Pharmaceutical, Inc., priority 2000, dated 2003).
# Columns and labels:
# Assay in all cases: MIC, microdilution broth method (NCCLS)
# Type in all cases: cell-based
# S. pneumoniae ATCC49619 = settings: D: S. pneumoniae ATCC49619, 35° C., 16-20 hours
# Method: (§1) Minimal inhibitory concentration (MIC) has been an indicator of in vitro antibacterial activity widely used in the art. The in vitro antimicrobial activity of the compounds was determined by the microdilution broth method following the test method from the National Committee for Clinical Laboratory Standards (NCCLS). This method is described in the NCCLS Document M7-A4, Vol. 17, No. 2, “Methods for Dilution Antimicrobial Susceptibility Test for Bacteria that Grow Aerobically—Fourth Edition”, which is incorporated herein by reference.
# (§2) In this method two-fold serial dilutions of drug in cation adjusted Mueller-Hinton broth are added to wells in microdilution trays. The test organisms are prepared by adjusting the turbidity of actively growing broth cultures so that the final concentration of test organism after it is added to the wells is approximately 5×10^4 CFU/well.
# (§3) Following inoculation of the microdilution trays, the trays are incubated at 35° C. for 16-20 hours and then read. […] The amount of growth in the wells containing the test compound is compared with the amount of growth in the growth-control wells (no test compound) used in each tray. As set forth in Table 1, compounds of the present invention were tested against a variety of Gram positive and Gram negative pathogenic bacteria resulting in a range of activities depending on the organism tested.
# S. aureus ATCC29213 = settings: B: S. aureus ATCC29213, 35° C., 16-20 hours
# Method: as §1, §2, §3
# H. influenzae ATCC49247 = settings: E: H. influenzae ATCC49247, 35° C., 16-20 hours
# Method: as §1, §2, §3
# E. faecalis ATCC29212 = settings: C: E. faecalis ATCC29212, 35° C., 16-20 hours
# Method: as §1, §2, §3
# E. coli OC2605 = settings: A: E. coli OC2605, 35° C., 16-20 hours
# Method: as §1, §2, §3
MIC (S. pneumoniae ATCC49619),MIC (S. aureus ATCC29213) [µg/mL],MIC (H. influenzae ATCC49247) [µg/mL],MIC (E. faecalis ATCC29212),MIC (E. coli OC2605) [µg/mL],Compound
0.03 µg/mL,0.25,2,0.12 µg/mL,8,CCC1OC(=O)C(C)(F)C(=O)C(C)C(OC2OC(C)CC(N(C)C)C2O)C(C)(OC(=O)NCC=Cc2ccc(-c3cnccn3)cc2)CC(C)C(=O)C(C)C2NC(=O)OC12C (centres unmarked) [Compound 101]
0.03 µg/mL,0.5,2,0.12 µg/mL,>16,CC[C@H]1OC(=O)[C@H](C)C(=O)[C@H](C)[C@@H](O[C@@H]2O[C@H](C)C[C@H](N(C)C)[C@H]2O)[C@](C)(OC(=O)NC/C=C/c2ccc(-c3ccncc3)cc2)C[C@@H](C)C(=O)[C@H](C)[C@H]2NC(=O)O[C@@]21C [Compound 26]
0.03 µg/mL,0.25,1,0.12 µg/mL,4,CCC1OC(=O)C(C)C(=O)C(C)C(OC2OC(C)CC(N(C)C)C2O)C(C)(OC(=O)NCC=Cc2ccc(-c3cccnn3)cc2)CC(C)C(=O)C(C)C2NC(=O)OC12C (centres unmarked) [Compound 96]
0.06 µg/mL,2,8,0.25 µg/mL,>16,CC[C@H]1OC(=O)[C@H](C)C(=O)[C@H](C)[C@@H](O[C@@H]2O[C@H](C)C[C@H](N(C)C)[C@H]2O)[C@](C)(OC(=O)NCc2cccc(-c3ncccn3)c2)C[C@@H](C)C(=O)[C@H](C)[C@H]2NC(=O)O[C@@]21C [Compound 65]
0.25 µg/mL,4,8,1 µg/mL,>16,CC[C@H]1OC(=O)[C@H](C)C(=O)[C@H](C)[C@@H](O[C@@H]2O[C@H](C)C[C@H](N(C)C)[C@H]2O)[C@](C)(OC(=O)N2CCC(c3ccccc3)CC2)C[C@@H](C)C(=O)[C@H](C)[C@H]2NC(=O)O[C@@]21C [Compound 137]
0.03 µg/mL,0.25,4,0.12 µg/mL,16,CCC1OC(=O)C(C)(F)C(=O)C(C)C(OC2OC(C)CC(N(C)C)C2O)C(C)(OC(=O)NCC=Cc2cn(-c3ncccn3)cn2)CC(C)C(=NO)C(C)C2NC(=O)OC12C (centres unmarked) [Compound 124]
0.06 µg/mL,4,8,0.25 µg/mL,>16,CC[C@H]1OC(=O)[C@H](C)C(=O)[C@H](C)[C@@H](O[C@@H]2O[C@H](C)C[C@H](N(C)C)[C@H]2O)[C@](C)(OC(=O)NCCN(C)Cc2cnc3ccccc3c2)C[C@@H](C)C(=O)[C@H](C)[C@H]2NC(=O)O[C@@]21C [Compound 119]
0.03 µg/mL,0.5,4,≦0.25 μg/mL,>16,CC[C@H]1OC(=O)[C@H](C)C(=O)[C@H](C)[C@@H](O[C@@H]2O[C@H](C)C[C@H](N(C)C)[C@H]2O)[C@](C)(OC(=O)NCc2ccc(-n3cccn3)c(F)c2)C[C@@H](C)C(=O)[C@H](C)[C@H]2NC(=O)O[C@@]21C [Compound 59]
0.03 µg/mL,0.25,2,0.12 µg/mL,16,CC[C@H]1OC(=O)[C@H](C)C(=O)[C@H](C)[C@@H](O[C@@H]2O[C@H](C)C[C@H](N(C)C)[C@H]2O)[C@](C)(OC(=O)NC/C=C/c2cn(-c3ncccn3)cn2)C[C@@H](C)C(=O)[C@H](C)[C@H]2NC(=O)O[C@@]21C [Compound 92]
0.5 µg/mL,16,16,2 µg/mL,>16,CC[C@H]1OC(=O)[C@H](C)C(=O)[C@H](C)[C@@H](O[C@@H]2O[C@H](C)C[C@H](N(C)C)[C@H]2O)[C@](C)(OC(=O)NCCNC(=O)c2cccnc2)C[C@@H](C)C(=O)[C@H](C)[C@H]2NC(=O)O[C@@]21C [Compound 112]
0.03 µg/mL,0.5,2,0.06 µg/mL,16,CC[C@H]1OC(=O)[C@H](C)C(=O)[C@H](C)[C@@H](O[C@@H]2O[C@H](C)C[C@H](N(C)C)[C@H]2O)[C@](C)(OC(=O)NCC#Cc2cnc3ccccc3c2)C[C@@H](C)C(=O)[C@H](C)[C@H]2NC(=O)O[C@@]21C [Compound 29]
0.03 µg/mL,0.25,4,0.12 µg/mL,16,CC[C@H]1OC(=O)[C@H](C)C(=O)[C@H](C)[C@@H](O[C@@H]2O[C@H](C)C[C@H](N(C)C)[C@H]2O)[C@](C)(OC(=O)NC/C=C/c2ccc(-n3cncn3)c(F)c2)C[C@@H](C)C(=O)[C@H](C)[C@H]2NC(=O)O[C@@]21C [Compound 53]
0.06 µg/mL,0.25,8,0.06 µg/mL,16,CC[C@H]1OC(=O)[C@H](C)C(=O)[C@H](C)[C@@H](O[C@@H]2O[C@H](C)C[C@H](N(C)C)[C@H]2O)[C@](C)(OC(=O)NC/C=C/c2ccc(-c3ncccn3)cc2F)C[C@@H](C)C(=O)[C@H](C)[C@H]2NC(=O)O[C@@]21C [Compound 88]
0.06 µg/mL,0.25,4,0.25 µg/mL,>16,CC[C@H]1OC(=O)[C@H](C)C(=O)[C@H](C)[C@@H](O[C@@H]2O[C@H](C)C[C@H](N(C)C)[C@H]2O)[C@](C)(OC(=O)NC/C=C/c2ccc(-n3cc(C)cn3)cc2)C[C@@H](C)C(=O)[C@H](C)[C@H]2NC(=O)O[C@@]21C [Compound 67]
≦0.015 μg/mL,0.06,1,0.06 µg/mL,16,CC[C@H]1OC(=O)[C@H](C)C(=O)[C@H](C)[C@@H](O[C@@H]2O[C@H](C)C[C@H](N(C)C)[C@H]2O)[C@](C)(OC(=O)NC/C=C/c2ccc(-n3cccn3)cc2F)C[C@@H](C)C(=O)[C@H](C)[C@H]2NC(=O)O[C@@]21C [Compound 74]
0.03 µg/mL,0.25,4,0.12 µg/mL,16,CCC1OC(=O)C(C)(F)C(=O)C(C)C(OC2OC(C)CC(N(C)C)C2O)C(C)(OC(=O)NCC=Cc2ccc(-c3ncccn3)cc2)CC(C)C(=NO)C(C)C2NC(=O)OC12C (centres unmarked) [Compound 123]
0.12 µg/mL,2,>16,1 µg/mL,>16,CCC1OC(=O)C(C)C(=NOC)C(C)C(OC2OC(C)CC(N(C)C)C2O)C(C)(OC(=O)NCC=Cc2ccc(-c3ncccn3)cc2)CC(C)C(=NOC)C(C)C2NC(=O)OC12C (centres unmarked) [Compound 134]
0.03 µg/mL,0.25,1,0.12 µg/mL,16,CC[C@H]1OC(=O)[C@H](C)C(=O)[C@H](C)[C@@H](O[C@@H]2O[C@H](C)C[C@H](N(C)C)[C@H]2O)[C@](C)(OC(=O)NC/C=C/c2ccc3nccnc3c2)C[C@@H](C)C(=O)[C@H](C)[C@H]2NC(=O)O[C@@]21C [Compound 41]
0.06 µg/mL,2,8,0.12 µg/mL,>16,CC[C@H]1OC(=O)[C@H](C)C(=O)[C@H](C)[C@@H](O[C@@H]2O[C@H](C)C[C@H](N(C)C)[C@H]2O)[C@](C)(OC(=O)NCc2ccc(-n3cccn3)c(OC)c2)C[C@@H](C)C(=O)[C@H](C)[C@H]2NC(=O)O[C@@]21C [Compound 81]
0.06 µg/mL,0.25,2,0.12 µg/mL,16,CC[C@H]1OC(=O)[C@H](C)C(=O)[C@H](C)[C@@H](O[C@@H]2O[C@H](C)C[C@H](N(C)C)[C@H]2O)[C@](C)(OC(=O)NC/C=C/c2ccc(-c3cccnc3)cc2)C[C@@H](C)C(=O)[C@H](C)[C@H]2NC(=O)O[C@@]21C [Compound 23]
0.06 µg/mL,1,4,0.12 µg/mL,16,CC[C@H]1OC(=O)[C@H](C)C(=O)[C@H](C)[C@@H](O[C@@H]2O[C@H](C)C[C@H](N(C)C)[C@H]2O)[C@](C)(OC(=O)NCCCc2cccnc2)C[C@@H](C)C(=O)[C@H](C)[C@H]2NC(=O)O[C@@]21C [Compound 12]
0.06 µg/mL,0.5,8,0.12 µg/mL,>16,CC[C@H]1OC(=O)[C@H](C)C(=O)[C@H](C)[C@@H](O[C@@H]2O[C@H](C)C[C@H](N(C)C)[C@H]2O)[C@](C)(OC(=O)NC/C=C/c2ccc(Oc3ncccn3)cc2)C[C@@H](C)C(=O)[C@H](C)[C@H]2NC(=O)O[C@@]21C [Compound 86]
